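Dose response: 5 concentrations. Exposure: 48 h. Format: 96-well plates. Endpoint: linear interpolation; highest concentration if not reached. GI50 = concentration required for 50% inhibition of growth.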 Activity calls are given as the source filed them. Cut-off read from the data, not from the text of the source: active = GI50 up to about 1.1 µM and inactive = higher.
How the values were obtained:
Test in all cases: NCI tumour cell line growth inhibition, 48 h
786-0 = test system: 786-0
A498 = test system: A498
A549 = test system: A549
ACHN = test system: ACHN
CAKI-1 = test system: CAKI-1
CCRF-CEM = test system: CCRF-CEM
COLO 205 = test system: COLO 205
DLD-1 = test system: DLD-1
DMS-114 = test system: DMS-114
DMS-273 = test system: DMS-273
EKVX = test system: EKVX
HCC 2998 = test system: HCC 2998
HCT-116 = test system: HCT-116
HCT-15 = test system: HCT-15
HL-60 = test system: HL-60
HOP-18 = test system: HOP-18
HOP-62 = test system: HOP-62
HOP-92 = test system: HOP-92
HT-29 = test system: HT-29
IGROV-1 = test system: IGROV-1
K562 = test system: K562
KM-20L2 = test system: KM-20L2
KM12 = test system: KM12
LOX IMVI = test system: LOX IMVI
LXFL 529 = test system: LXFL 529
M14 = test system: M14
M19-MEL = test system: M19-MEL
MOLT-4 = test system: MOLT-4
Malme-3M = test system: Malme-3M
NCI-H226 = test system: NCI-H226
NCI-H23 = test system: NCI-H23
NCI-H460 = test system: NCI-H460
NCI-H522 = test system: NCI-H522
OVCAR-3 = test system: OVCAR-3
OVCAR-4 = test system: OVCAR-4
OVCAR-5 = test system: OVCAR-5
OVCAR-8 = test system: OVCAR-8
RPMI-8226 = test system: RPMI-8226
RXF 393 = test system: RXF 393
SF-268 = test system: SF-268
SF-295 = test system: SF-295
SF-539 = test system: SF-539
SK-MEL-28 = test system: SK-MEL-28
SK-MEL-2 = test system: SK-MEL-2
SK-MEL-5 = test system: SK-MEL-5
SK-OV-3 = test system: SK-OV-3
SN12C = test system: SN12C
SNB-19 = test system: SNB-19
SNB-75 = test system: SNB-75
SR = test system: SR
SW-620 = test system: SW-620
TK-10 = test system: TK-10
U-251 = test system: U-251
UACC-257 = test system: UACC-257
UACC-62 = test system: UACC-62
UO-31 = test system: UO-31
XF498 = test system: XF498
MCF7 = test system: MCF7
NCI/ADR-RES = test system: NCI/ADR-RES
SNB-78 = test system: SNB-78

For `CC(=O)OCC1OC(OC2CC3C(C)(C)C(O)CC[C@]3(C)C3CCC45CC4(CC[C@H]5C(C)CC(O)C4OC4(C)C)[C@]23C)C(O)C(O)C1O` (stereo partly specified), the GI50 (786-0) was 7.57 µM (inactive), the GI50 (A498) was 34.5 µM (inactive) and the GI50 (A549) was 10.6 µM (inactive). For the same compound, the GI50 (ACHN) was 8.63 µM (inactive), the GI50 (CAKI-1) was 8.87 µM (inactive) and the GI50 (CCRF-CEM) was 1.56 µM (inactive). For the same compound, the GI50 (COLO 205) was 7.24 µM (inactive), the GI50 (DLD-1) was 8.09 µM (inactive) and the GI50 (DMS-114) was 5.21 µM (inactive). The GI50 (DMS-273) was 8 µM (inactive), the GI50 (EKVX) was 8.61 µM (inactive) and the GI50 (HCC 2998) was 7.06 µM (inactive). The GI50 (HCT-116) was 9.14 µM (inactive), the GI50 (HCT-15) was 8.45 µM and the GI50 (HL-60) was 0.973 µM (active). The GI50 (HOP-18) was 7.08 µM (inactive), the GI50 (HOP-62) was 11.1 µM (inactive) and the GI50 (HOP-92) was 5.06 µM (inactive). For the same compound, the GI50 (HT-29) was 8.38 µM (inactive), the GI50 (IGROV-1) was 0.966 µM (active) and the GI50 (K562) was 1.85 µM (inactive). For the same compound, the GI50 (KM-20L2) was 8.13 µM (inactive), the GI50 (KM12) was 8.04 µM (inactive) and the GI50 (LOX IMVI) was 5.2 µM (inactive). For the same compound, the GI50 (LXFL 529) was 5.83 µM (inactive), the GI50 (M14) was 8.04 µM (inactive) and the GI50 (M19-MEL) was 4.27 µM (inactive). For the same compound, the GI50 (MOLT-4) was 0.701 µM (active), the GI50 (Malme-3M) was 8.97 µM (inactive) and the GI50 (NCI-H226) was 8.95 µM (inactive). For the same compound, the GI50 (NCI-H23) was 8.75 µM (inactive), the GI50 (NCI-H460) was 8.91 µM (inactive) and the GI50 (NCI-H522) was 4.89 µM (inactive). For the same compound, the GI50 (OVCAR-3) was 6.17 µM (inactive), the GI50 (OVCAR-4) was 8.73 µM (inactive) and the GI50 (OVCAR-5) was 9.12 µM (inactive). The GI50 (OVCAR-8) was 6.89 µM (inactive), the GI50 (RPMI-8226) was 0.711 µM (active) and the GI50 (RXF 393) was 4.2 µM (inactive). The GI50 (SF-268) was 6.38 µM (inactive), the GI50 (SF-295) was 8.24 µM (inactive) and the GI50 (SF-539) was 7.98 µM (inactive). The GI50 (SK-MEL-28) was 7.41 µM (inactive), the GI50 (SK-MEL-2) was 5.86 µM (inactive) and the GI50 (SK-MEL-5) was 3.1 µM (inactive). For the same compound, the GI50 (SK-OV-3) was 8.2 µM (inactive), the GI50 (SN12C) was 8.24 µM (inactive) and the GI50 (SNB-19) was 8 µM (inactive). The GI50 (SNB-75) was 7.46 µM (inactive), the GI50 (SR) was 1.47 µM (inactive) and the GI50 (SW-620) was 7.98 µM (inactive). The GI50 (TK-10) was 8.73 µM (inactive), the GI50 (U-251) was 3.89 µM (inactive) and the GI50 (UACC-257) was 9.04 µM (inactive). For the same compound, the GI50 (UACC-62) was 7.45 µM (inactive), the GI50 (UO-31) was 8.51 µM (inactive) and the GI50 (XF498) was 4.13 µM (inactive).
With `C/C(=C\c1ccccc1)C(=O)CCN1CCOCC1` the GI50 (A498) was > 56 µM (inactive), the GI50 (A549) was > 90.8 µM (inactive) and the GI50 (CAKI-1) was 18.1 µM (inactive). For the same compound, the GI50 (CCRF-CEM) was 30.6 µM (inactive), the GI50 (COLO 205) was 17.2 µM (inactive) and the GI50 (DLD-1) was 17.3 µM (inactive). For the same compound, the GI50 (DMS-114) was 18.7 µM (inactive), the GI50 (DMS-273) was 19.7 µM (inactive) and the GI50 (EKVX) was 27.8 µM (inactive). The GI50 (HCC 2998) was 16.7 µM (inactive), the GI50 (HCT-116) was 28 µM (inactive) and the GI50 (HCT-15) was 16.3 µM. The GI50 (HL-60) was 33.7 µM (inactive), the GI50 (HOP-18) was 18.3 µM (inactive) and the GI50 (HOP-62) was > 100 µM (inactive). For the same compound, the GI50 (HOP-92) was 20.4 µM (inactive), the GI50 (HT-29) was 18.8 µM (inactive) and the GI50 (IGROV-1) was 27.4 µM (inactive). The GI50 (K562) was 30.1 µM (inactive), the GI50 (KM-20L2) was 19.5 µM (inactive) and the GI50 (KM12) was 14.9 µM (inactive). For the same compound, the GI50 (LOX IMVI) was 16.9 µM (inactive), the GI50 (M19-MEL) was 17.2 µM (inactive) and the GI50 (MCF7) was 7.87 µM (inactive). The GI50 (MOLT-4) was 19.1 µM (inactive), the GI50 (Malme-3M) was 17.5 µM (inactive) and the GI50 (NCI-H226) was > 46.1 µM (inactive). For the same compound, the GI50 (NCI-H23) was 16.9 µM (inactive), the GI50 (NCI-H460) was 62.1 µM (inactive) and the GI50 (NCI-H522) was 7.94 µM (inactive). The GI50 (NCI/ADR-RES) was 21.8 µM (inactive), the GI50 (OVCAR-3) was 19.3 µM (inactive) and the GI50 (OVCAR-4) was 18 µM (inactive). For the same compound, the GI50 (OVCAR-5) was 18.9 µM (inactive), the GI50 (OVCAR-8) was 20.5 µM (inactive) and the GI50 (RPMI-8226) was 3.15 µM (inactive). For the same compound, the GI50 (RXF 393) was 19.7 µM (inactive), the GI50 (SF-268) was 32.1 µM (inactive) and the GI50 (SF-295) was > 100 µM (inactive). For the same compound, the GI50 (SF-539) was 18.3 µM (inactive), the GI50 (SK-MEL-28) was 19.4 µM (inactive) and the GI50 (SK-MEL-2) was 27.2 µM (inactive). The GI50 (SK-MEL-5) was 33 µM (inactive), the GI50 (SK-OV-3) was > 100 µM (inactive) and the GI50 (SN12C) was 18.2 µM (inactive). The GI50 (SNB-19) was > 44.9 µM (inactive), the GI50 (SNB-75) was 23.7 µM (inactive) and the GI50 (SNB-78) was 15.6 µM (inactive). The GI50 (SW-620) was 16.5 µM (inactive), the GI50 (U-251) was 18.1 µM (inactive) and the GI50 (UACC-257) was 15.6 µM (inactive). The GI50 (UACC-62) was 17.6 µM (inactive), the GI50 (UO-31) was 20.8 µM (inactive) and the GI50 (XF498) was 18.3 µM (inactive).
